According to ChEMBL document CHEMBL4819069, “Discovery of multifunctional anti-Alzheimer's agents with a unique mechanism of action including inhibition of the enzyme butyrylcholinesterase and γ-aminobutyric acid transporters” (Eur J Med Chem, 2021):
pIC50: −log10 of the molar value.

Experiments:
[1] = biological target: T1, Cholinesterase (Homo sapiens, UniProt P06276); assay: Inhibition of human BuchE at 1 uM using butyrylthiocholine as substrate preincubated for 5 mins followed by substrate addition and measured after 5 mins by Ellman's method relative to control; settings: time 10.0 min
[2] = biological target: Cholinesterase (Equus caballus, UniProt P81908)
Description: Inhibition of equine serum BuChE using butyrylthiocholine as substrate preincubated for 5 mins followed by substrate addition and measured after 5 mins by Ellman's method

[3] = biological target: Amyloid-beta precursor protein (Homo sapiens) (UniProt P05067); assay: Inhibition of HFIP-pretreated amyloid beta (1 to 42) (unknown origin) aggregation at 10 uM after 36 to 48 hrs by thioflavin-T fluorescence assay relative to control; settings: time 36-48 hrs
[4] = biological target: T2, Beta-secretase 1 (Homo sapiens, UniProt P56817)
[5] = biological target: Acetylcholinesterase (Electrophorus electricus) (UniProt O42275); assay: Inhibition of electric eel AChE at 10 uM using acetylthiocholine as substrate preincubated for 5 mins followed by substrate addition and measured after 5 mins by Ellman's method relative to control; settings: time 10.0 min
[6] = biological target: T2, Beta-secretase 1; settings: dose 50.0 µM, time 60.0 min
[7] = biological target: T1, Cholinesterase
Description: Inhibition of human BuchE using butyrylthiocholine as substrate preincubated for 5 mins followed by substrate addition and measured after 5 mins by Ellman's method

[8] = biological target: T3, GABA transporter 4 (Mus musculus, UniProt P31650); assay: Inhibition of mouse GAT4 expressed in HEK293 cell line assessed as reduction in [3H]GABA uptake incubated for 10 mins; format: cell-based
T3 sequence (P31650 whole entry): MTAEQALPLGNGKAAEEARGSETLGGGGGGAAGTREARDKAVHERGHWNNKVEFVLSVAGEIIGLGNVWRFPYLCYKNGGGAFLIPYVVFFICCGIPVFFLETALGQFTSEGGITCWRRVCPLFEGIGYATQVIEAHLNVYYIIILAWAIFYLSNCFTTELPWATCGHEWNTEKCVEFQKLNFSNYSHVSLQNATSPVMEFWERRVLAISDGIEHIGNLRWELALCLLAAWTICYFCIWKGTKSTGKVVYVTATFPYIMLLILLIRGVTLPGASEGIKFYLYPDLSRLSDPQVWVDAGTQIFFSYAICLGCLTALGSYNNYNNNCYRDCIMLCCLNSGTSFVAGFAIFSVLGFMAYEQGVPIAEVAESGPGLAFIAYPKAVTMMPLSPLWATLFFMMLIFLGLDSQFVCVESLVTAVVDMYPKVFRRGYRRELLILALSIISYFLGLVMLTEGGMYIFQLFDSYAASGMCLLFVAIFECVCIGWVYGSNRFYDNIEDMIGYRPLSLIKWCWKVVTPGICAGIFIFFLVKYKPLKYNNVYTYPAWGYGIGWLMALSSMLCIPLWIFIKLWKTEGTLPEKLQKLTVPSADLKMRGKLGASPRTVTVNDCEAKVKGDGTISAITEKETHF

[9] = biological target: Sodium- and chloride-dependent GABA transporter 1 (Mus musculus) (UniProt P31648); assay: Inhibition of NO711 binding to mouse GAT1 expressed in HEK cell membranes at 100 uM incubated for 40 mins in presence of NO711 by LC-ESI-MS/MS analysis relative to control; settings: Membrane
[10] = biological target: T4, GABA transporter 4 (Mus musculus) (UniProt P31650); assay: Inhibition of mouse GAT3 expressed in HEK293 cell line assessed as reduction in [3H]GABA uptake at 100 uM incubated for 10 mins relative to control; format: cell-based
T4 sequence (whole entry): T3 sequence (P31650 whole entry)

[11] = biological target: Sodium- and chloride-dependent GABA transporter 1 (Mus musculus, UniProt P31648); assay: Inhibition of mouse GAT1 expressed in HEK293 cell line assessed as reduction in [3H]GABA uptake incubated for 10 mins; format: cell-based
[12] = biological target: Sodium- and chloride-dependent GABA transporter 1 (Mus musculus) (UniProt P31648); assay: Inhibition of mouse GAT1 expressed in HEK293 cell line assessed as reduction in [3H]GABA uptake at 100 uM incubated for 10 mins relative to control; format: cell-based
[13] = biological target: T5, GABA transporter 3 (Mus musculus) (UniProt P31649); assay: Inhibition of mouse GAT2 expressed in HEK293 cell line assessed as reduction in [3H]GABA uptake at 100 uM incubated for 10 mins relative to control; format: cell-based
T5 sequence (whole entry): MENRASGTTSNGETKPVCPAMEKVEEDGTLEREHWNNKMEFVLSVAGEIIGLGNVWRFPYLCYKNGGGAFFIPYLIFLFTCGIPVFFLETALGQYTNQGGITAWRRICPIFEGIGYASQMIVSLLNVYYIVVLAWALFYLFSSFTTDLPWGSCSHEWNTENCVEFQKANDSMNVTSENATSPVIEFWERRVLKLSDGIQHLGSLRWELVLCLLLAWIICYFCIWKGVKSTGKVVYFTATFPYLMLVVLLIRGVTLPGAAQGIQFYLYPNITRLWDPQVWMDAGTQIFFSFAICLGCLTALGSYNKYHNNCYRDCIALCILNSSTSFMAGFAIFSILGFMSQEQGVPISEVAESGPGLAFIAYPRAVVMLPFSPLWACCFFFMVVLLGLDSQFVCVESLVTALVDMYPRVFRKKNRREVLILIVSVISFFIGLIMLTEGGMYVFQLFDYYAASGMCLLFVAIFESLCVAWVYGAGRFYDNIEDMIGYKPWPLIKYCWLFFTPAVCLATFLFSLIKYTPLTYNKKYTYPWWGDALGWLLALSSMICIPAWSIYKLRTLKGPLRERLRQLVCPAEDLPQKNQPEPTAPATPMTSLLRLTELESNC

Chain of Amyloid-beta precursor protein (Homo sapiens) (P05067 whole entry): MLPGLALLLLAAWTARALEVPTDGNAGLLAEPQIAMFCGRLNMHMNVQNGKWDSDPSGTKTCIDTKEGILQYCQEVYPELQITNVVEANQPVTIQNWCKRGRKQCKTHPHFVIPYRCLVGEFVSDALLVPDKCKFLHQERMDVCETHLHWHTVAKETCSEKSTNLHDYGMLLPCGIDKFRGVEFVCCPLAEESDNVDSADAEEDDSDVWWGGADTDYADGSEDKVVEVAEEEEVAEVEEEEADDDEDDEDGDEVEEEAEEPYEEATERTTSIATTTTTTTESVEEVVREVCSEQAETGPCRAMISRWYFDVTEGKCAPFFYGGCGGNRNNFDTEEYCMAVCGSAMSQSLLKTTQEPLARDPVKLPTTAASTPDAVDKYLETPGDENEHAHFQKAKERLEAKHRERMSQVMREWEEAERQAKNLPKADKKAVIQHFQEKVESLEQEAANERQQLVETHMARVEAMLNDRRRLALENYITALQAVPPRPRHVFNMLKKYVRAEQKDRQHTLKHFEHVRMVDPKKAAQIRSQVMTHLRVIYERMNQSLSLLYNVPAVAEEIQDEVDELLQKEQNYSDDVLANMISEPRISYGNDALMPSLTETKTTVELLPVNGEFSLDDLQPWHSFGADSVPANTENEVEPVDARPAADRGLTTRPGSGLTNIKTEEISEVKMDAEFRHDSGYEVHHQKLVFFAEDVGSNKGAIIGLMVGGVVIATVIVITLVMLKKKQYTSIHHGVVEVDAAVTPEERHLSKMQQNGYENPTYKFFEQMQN
T1 sequence (P06276 whole entry): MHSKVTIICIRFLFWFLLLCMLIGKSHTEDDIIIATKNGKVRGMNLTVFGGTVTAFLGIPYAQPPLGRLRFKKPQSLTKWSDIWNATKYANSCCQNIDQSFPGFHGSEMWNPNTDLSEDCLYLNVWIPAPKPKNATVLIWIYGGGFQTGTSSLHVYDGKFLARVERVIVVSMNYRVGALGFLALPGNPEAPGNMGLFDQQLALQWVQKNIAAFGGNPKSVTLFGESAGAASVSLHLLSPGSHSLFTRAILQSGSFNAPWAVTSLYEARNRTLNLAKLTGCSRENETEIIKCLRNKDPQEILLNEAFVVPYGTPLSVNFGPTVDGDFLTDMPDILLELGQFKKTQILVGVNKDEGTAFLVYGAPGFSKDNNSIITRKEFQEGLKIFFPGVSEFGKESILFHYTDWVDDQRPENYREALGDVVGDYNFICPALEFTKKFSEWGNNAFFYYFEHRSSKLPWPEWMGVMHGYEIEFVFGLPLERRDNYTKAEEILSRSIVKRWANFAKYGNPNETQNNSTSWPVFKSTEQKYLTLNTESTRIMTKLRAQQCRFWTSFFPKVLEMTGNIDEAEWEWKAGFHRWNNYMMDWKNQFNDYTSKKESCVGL
T2 sequence (P56817 whole entry): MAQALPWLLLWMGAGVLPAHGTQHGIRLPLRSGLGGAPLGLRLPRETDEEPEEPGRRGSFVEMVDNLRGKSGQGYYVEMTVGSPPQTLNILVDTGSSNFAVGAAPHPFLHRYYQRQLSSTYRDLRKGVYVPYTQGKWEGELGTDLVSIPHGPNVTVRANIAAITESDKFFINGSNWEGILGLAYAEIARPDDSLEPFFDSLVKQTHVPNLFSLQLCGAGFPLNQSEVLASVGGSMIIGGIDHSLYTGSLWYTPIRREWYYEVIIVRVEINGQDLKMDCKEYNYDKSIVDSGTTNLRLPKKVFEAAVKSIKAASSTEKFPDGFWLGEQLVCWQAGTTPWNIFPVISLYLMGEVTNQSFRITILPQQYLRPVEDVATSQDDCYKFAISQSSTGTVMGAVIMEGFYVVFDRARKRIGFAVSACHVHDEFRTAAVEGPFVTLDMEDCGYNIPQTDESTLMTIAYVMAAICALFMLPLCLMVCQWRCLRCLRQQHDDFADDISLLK
Chain of Acetylcholinesterase (Electrophorus electricus) (O42275 24-633 limits assumed): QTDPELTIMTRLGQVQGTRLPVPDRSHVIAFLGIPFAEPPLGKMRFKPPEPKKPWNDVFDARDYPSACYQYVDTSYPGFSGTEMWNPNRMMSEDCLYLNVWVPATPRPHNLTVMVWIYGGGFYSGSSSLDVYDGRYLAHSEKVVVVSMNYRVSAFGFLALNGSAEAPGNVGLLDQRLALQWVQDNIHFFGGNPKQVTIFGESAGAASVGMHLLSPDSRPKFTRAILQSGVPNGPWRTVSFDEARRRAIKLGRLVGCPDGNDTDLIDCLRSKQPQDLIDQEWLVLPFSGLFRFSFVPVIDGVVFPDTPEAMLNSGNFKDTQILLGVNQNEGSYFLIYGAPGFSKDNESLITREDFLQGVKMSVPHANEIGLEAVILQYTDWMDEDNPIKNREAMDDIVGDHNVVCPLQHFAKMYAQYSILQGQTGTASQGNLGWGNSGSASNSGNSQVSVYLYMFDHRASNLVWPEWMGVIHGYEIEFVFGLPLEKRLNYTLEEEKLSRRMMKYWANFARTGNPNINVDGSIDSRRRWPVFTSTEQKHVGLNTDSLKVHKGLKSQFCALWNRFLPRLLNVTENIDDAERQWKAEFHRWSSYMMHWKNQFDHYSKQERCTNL
Chain of Cholinesterase (Equus caballus, UniProt P81908) (P81908 whole entry): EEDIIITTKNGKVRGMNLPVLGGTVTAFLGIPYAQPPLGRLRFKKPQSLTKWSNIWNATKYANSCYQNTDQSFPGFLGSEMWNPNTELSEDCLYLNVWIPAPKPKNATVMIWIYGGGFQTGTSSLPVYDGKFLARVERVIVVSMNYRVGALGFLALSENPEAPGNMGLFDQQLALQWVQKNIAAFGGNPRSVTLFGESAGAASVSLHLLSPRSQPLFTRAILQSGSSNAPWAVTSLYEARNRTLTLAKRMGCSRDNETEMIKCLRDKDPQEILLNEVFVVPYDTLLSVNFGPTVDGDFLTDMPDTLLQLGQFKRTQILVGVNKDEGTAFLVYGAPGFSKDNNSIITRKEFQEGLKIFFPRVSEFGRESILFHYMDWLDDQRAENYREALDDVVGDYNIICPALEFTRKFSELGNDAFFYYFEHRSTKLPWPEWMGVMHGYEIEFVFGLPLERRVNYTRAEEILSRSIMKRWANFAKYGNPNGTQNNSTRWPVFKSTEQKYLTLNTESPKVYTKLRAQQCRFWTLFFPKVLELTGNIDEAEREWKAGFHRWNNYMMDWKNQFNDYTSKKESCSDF

Structure (SMILES) | inhibition [1] | pIC50 [2] | inhibition [3] | pIC50 [4] | inhibition [5] | inhibition [6] | pIC50 [7] | pIC50 [8] | inhibition [9] | inhibition [10] | pIC50 [11] | inhibition [12] | inhibition [13]
CC(C)c1cccc(CNC[C@@H](O)[C@H](Cc2ccccc2)NCCC(c2ccccc2)c2ccccc2)c1 | 67.4% | 5.74 | 34.7% | 5.18 | 25.9% | – | – | – | – | – | – | – | –
O[C@H](CNCc1ccccc1)[C@H](Cc1ccccc1)NCCC(c1ccccc1)c1ccccc1 | 71.7% | 5.81 | 34.7% | – | < 10% | 55.3% | – | – | – | – | – | – | –
COc1ccccc1CNC[C@H](O)[C@H](Cc1ccccc1)NC(=O)C(c1ccccc1)c1ccccc1 | – | 6.96 | 20.5% | – | < 10% | 66.2% | 6.27 | 4.70 | 80% | 69% | 4.06 | – | –
COc1cccc(CNC[C@@H](O)[C@H](Cc2ccccc2)NC(=O)CC(c2ccccc2)c2ccccc2)c1 | – | 5.89 | 20.5% | – | < 10% | 49% | 6.36 | 5.23 | 65% | 92% | – | 67% | –
COc1cccc(CNC[C@@H](O)[C@H](Cc2ccccc2)NCCC(c2ccccc2)c2ccccc2)c1 | 55.4% | 5.69 | 34.7% | – | < 10% | 50.6% | – | – | – | – | – | – | –
O=C(N[C@@H](Cc1ccccc1)[C@@H](O)CNCc1cccc(C(F)(F)F)c1)C(c1ccccc1)c1ccccc1 | – | 6.41 | – | 5.07 | < 10% | – | 6.17 | – | – | – | – | – | –
O=C(CC(c1ccccc1)c1ccccc1)N[C@@H](Cc1ccccc1)[C@H](O)CNCc1ccccc1 | 62.3% | – | 20.5% | 4.45 | < 10% | – | – | – | – | – | – | – | –
CC(C)(C)NC[C@H](O)[C@H](Cc1ccccc1)NCCC(c1ccccc1)c1ccccc1 | 68.5% | 6.72 | 34.7% | – | < 10% | 51.3% | – | – | – | – | – | – | –
CC(C)(C)CNC[C@@H](O)[C@H](Cc1ccccc1)NC(=O)CC(c1ccccc1)c1ccccc1 | 46.2% | 5.56 | – | 4.47 | < 10% | – | – | – | – | – | – | – | –
CC(C)(C)c1cccc(CNC[C@@H](O)[C@H](Cc2ccccc2)NC(=O)CC(c2ccccc2)c2ccccc2)c1 | 77.3% | 6.35 | 20.5% | 5.22 | < 10% | – | – | – | – | – | – | – | –
C[C@H](NC[C@@H](O)[C@H](Cc1ccccc1)NCC(c1ccccc1)c1ccccc1)c1ccccc1 | – | 6.02 | 34.7% | – | < 10% | 53.9% | 6.04 | – | – | – | – | – | –
O=C(N[C@@H](Cc1ccccc1)[C@H](O)CNCc1ccccc1)C(c1ccccc1)c1ccccc1 | 34.1% | 5.82 | – | – | < 10% | 56.2% | – | – | – | – | – | – | –
COc1ccccc1CNC[C@H](O)[C@H](Cc1ccccc1)NCC(c1ccccc1)c1ccccc1 | – | 6.49 | 81.4% | – | < 10% | 55.2% | 6.24 | – | – | – | – | – | –
O[C@H](CNCc1ccccc1)[C@H](Cc1ccccc1)NCC(c1ccccc1)c1ccccc1 | – | 6.02 | – | – | < 10% | 42% | 6.49 | – | – | – | – | – | –
O=C(N[C@@H](Cc1ccccc1)[C@H](O)CNCC1CC1)C(c1ccccc1)c1ccccc1 | 12.3% | 5.49 | 20.5% | – | < 10% | 44.4% | – | 4.13 | 74% | 54% | – | 51% | 85%
O=C(CC(c1ccccc1)c1ccccc1)N[C@@H](Cc1ccccc1)[C@@H](O)CNCc1ccccc1 | 67.7% | – | 20.5% | 4.76 | < 10% | – | – | – | 83% | 76% | – | 61% | 74%
CC(C)(NC[C@@H](O)[C@H](Cc1ccccc1)NCCC(c1ccccc1)c1ccccc1)c1ccccc1 | 53.2% | 5.80 | 34.7% | – | < 10% | 71.8% | – | – | – | – | – | – | –
COc1ccccc1CNC[C@H](O)[C@H](Cc1ccccc1)NC(=O)CC(c1ccccc1)c1ccccc1 | – | 6.48 | 20.5% | 4.63 | < 10% | – | 6.46 | – | – | – | – | – | –
CC(C)(C)c1ccc(CNC[C@H](O)[C@H](Cc2ccccc2)NC(=O)C(c2ccccc2)c2ccccc2)cc1 | – | 5.46 | 20.5% | 5.68 | < 10% | – | 6.70 | – | – | – | – | – | –
COc1cccc(CNC[C@@H](O)[C@H](Cc2ccccc2)NC(=O)C(c2ccccc2)c2ccccc2)c1 | 56.5% | 5.81 | 20.5% | – | < 10% | 37% | – | 4.48 | 85% | 67% | – | 61% | 61%
CC(C)(NC[C@@H](O)[C@H](Cc1ccccc1)NC(=O)CC(c1ccccc1)c1ccccc1)c1ccccc1 | 13.3% | 5.49 | 20.5% | 5.05 | < 10% | – | – | – | – | – | – | – | –
CC(C)(C)NC[C@H](O)[C@H](Cc1ccccc1)NC(=O)C(c1ccccc1)c1ccccc1 | 35.5% | 6.08 | 20.5% | – | < 10% | < 10% | – | – | – | – | – | – | –
C[C@H](NC[C@@H](O)[C@H](Cc1ccccc1)NCCC(c1ccccc1)c1ccccc1)c1ccccc1 | 72.5% | 6.01 | 34.7% | – | < 10% | 62% | – | – | – | – | – | – | –
CC(C)c1cccc(CNC[C@H](O)[C@H](Cc2ccccc2)NC(=O)C(c2ccccc2)c2ccccc2)c1 | 74.9% | 6.70 | – | 5.47 | < 10% | – | – | – | – | – | – | – | –
CC(C)(C)c1cccc(CNCC(O)CNCCC(c2ccccc2)c2ccccc2)c1 (configuration not stated) | – | 5.53 | – | 4.38 | 21.8% | – | 5.24 | – | – | – | – | – | –
COc1ccccc1CNC[C@H](O)[C@H](Cc1ccccc1)NCCC(c1ccccc1)c1ccccc1 | – | 6.00 | 34.7% | – | < 10% | 65.5% | 6.10 | – | – | – | – | – | –
O=C(N[C@@H](Cc1ccccc1)[C@@H](O)CNCc1ccccc1)C(c1ccccc1)c1ccccc1 | 40.5% | 6.64 | – | – | < 10% | 66.1% | – | 4.57 | 74% | 52% | 4.46 | – | –
CC(C)(C)NC[C@H](O)[C@H](Cc1ccccc1)NC(=O)CC(c1ccccc1)c1ccccc1 | < 10% | 4.93 | 20.5% | – | < 10% | < 10% | – | – | – | – | – | – | –
